Laboratory results: ChEMBL document CHEMBL1150865, “Ma'iliohydrin, a cytotoxic chamigrene dibromohydrin from a Philippine Laurencia species” (2001)

Tests used:
[1] = test system: NCI/ADR-RES; assay: Growth inhibition of human NCI/ADR-RES cells; format: functional
[2] = Growth inhibition of human NCI60 cells; format: functional

## C=C1C[C@@H](O)[C@@H](Br)C(C)(C)[C@@]12C=C[C@@](O)(C(Br)Br)CC2 [MAILIOHYDRIN]
[1]
  GI50: 0.01 µM
[2]
  GI50: 10 µM
